Experimental data published in patent publication US20130315940A1, “TREATMENT OF LIVER CANCER” (priority 2010, published 2013).
“Also recorded” adds a separate entry of the source.

How the values were obtained:
Hepatocellular carcinoma = assay: Chloroquine in a rodent model of HCC (DEN and NMOR); format: in vivo, fisher rats; settings: for animals that developed evidence of hepatocellular carcinoma: Chloroquine 25 mg/kg/day with DEN and NMOR, weeks 8, 10 and 12 pooled
Experimental: 40 five weeks old male fisher rats were studied. They were divided into 2 groups, Group 1 contained 15 rats who were taking DEN and NMOR alone. […] The rats have been given 100 mg/kg DEN (Diethylnitrosamine) (sigma) once intraperitoneal. Nitosomorpholine (NMOR) was been supplied in water with concentration of 80 ppm.
Liver and blood were collected from the animals after 8, 10 and 12 weeks respectively. […] (Table 2)

[1] = test system: HUCCT (cholangiocarcinoma); assay: Cholangiocarcinoma implantation in immunodeficient NOD-SCID mice; format: in vivo; settings: for tumour size: after 50 days, compared with control, chloroquine 25 mg/kg in water supply (p<0.001), IRS 954 50 μl i.p. once weekly (p<0.01)
Experimental: 12 NOD-SCID mice were injected intrahepatically with 5×10^6 cells of HUCCT (cholangiocarcinoma). […] After 50 days a mass was found subcutaneously.

[2] = test system: HuH7 hepatocellular carcinoma cell line; assay: Cell proliferation in culture (cell counting, Promega proliferation assay), HuH7; format: cell-based; settings: FIG. 13A, HuH7, in the presence of cpg
Source text: Using different techniques, manual cell counting, nucleo-counter machine and Promega proliferation assay. Using 10^4 […] 96 wells plate treat some of them with cpg (TLR9 stimulator; […] In Huh7, HepG2 and HUCCT

HCC = assay: Animal model for HCC: DEN and NMOR treated Fisher rats plus norfloxacin; format: in vivo, Fisher rat; settings: for fibrosis grade: DEN + NMOR + norfloxacin 20 mg/kg per day by gavage, 14 weeks treatment, end at 16th week
Experimental: We chose a Fisher Rat to be our model. We started with 18 Fisher rats, which were 5 weeks old on the beginning of the experiment. We divided them into 3 groups. They were acclimatised for one week before the experiment at room temperature […] and humidity 60%-65%. The first group used 6 Fisher rats as an HCC model. On the day we started we weighed them and determined the exact dose for each rat.
We started with a single dose of DEN (Diethylnitrosamine™, sigma) using 100 mg/kg as single intraperitoneal injection. Then we put NMOR (Nitrosomorpholine™, Sigma) in the concentration of 80 ppm in the water for 14 weeks. The second group, another 6 Fisher rats, got the same HCC model treatment (DEN and NMOR) plus we gavaged them with norfloxacin in the dose of 20 mg/kg per day. The third group, at the same time, was 6 rats with a control of just plain water. We weighed them every other day and stopped treatment on the 14th week, then left them for two more weeks until the 16th week. We noticed the two groups who took the DEN and NMOR didn't increase in weight at the same rate as the control.
When we started our experiment the rats average weights were 212-241 g in the 1st group, 225-260 g and 221-249 g in the 2nd and 3rd groups respectively. At the end of experiment for the groups that took the carcinogenecic treatment average weights were 328-353 g and 330-372 g respectively. For the control group the average weight was 430-478 g. […] Control group: Smooth bright outer surface of the liver.

| Structure (SMILES) | animals that developed evidence of hepatocellular carcinoma (Hepatocellular carcinoma; untreated group 8/9, p<0.0001) | animals that developed evidence of hepatocellular carcinoma (Hepatocellular carcinoma; untreated group 89%) [%] | microscopic and macroscopic appearance of hepatocellular carcinoma (Hepatocellular carcinoma; FIG. 10, DEN and NMOR group administered chloroquine) | HCC in Chloroquine treated (Hepatocellular carcinoma; Week 8th, DEN & NMOR alone 2/3) | HCC in Chloroquine treated (Hepatocellular carcinoma; Week 10th, DEN & NMOR alone 3/3) | HCC in Chloroquine treated (Hepatocellular carcinoma; Week 12th, DEN & NMOR alone 3/3) | size of the nodules ([1]; FIG. 11B, compared with controls) | tumour size [1] | tumour size ([1]; listed as chloroquine) | inhibition of cpg associated proliferation [2] | fibrosis grade (HCC) | fibrosis grade (HCC; listed as Norfloxacin) | HCC development / tumour grade (HCC; DEN + NMOR + norfloxacin group (2nd group)) | liver nodules (HCC; DEN, NMOR and Norfloxacin group versus DEN and NMOR group) |
| --- | --- | --- | --- | --- | --- | --- | --- | --- | --- | --- | --- | --- | --- | --- |
| CCN(CC)CCCC(C)Nc1ccnc2cc(Cl)ccc12 (centres unmarked) [Chloroquine] | 1/10 | 10 | not seen; also recorded: no cancer was apparent either microscopically or macroscopically | 1/4 | 0/3 | 0/3 | significantly smaller | significant reduction | significantly less | significantly inhibited | – | – | – | – |
| CCn1cc(C(=O)O)c(=O)c2cc(F)c(N3CCNCC3)cc21 [norfloxacin] | – | – | – | – | – | – | – | – | – | – | 0-2 | minimal fibrosis | developed well-differentiated HCC except one | less nodules than the first group |
